± gives the expanded uncertainty stated by the source.
Experiment: xn = mol fraction of the nth substance listed
Details: 298.15 K, 101.3 kPa, Liquid; for viscosity: Capillary tube (Ostwald / Ubbelohde) method

Question: Which viscosity (x1 = 0.1018) does the source give for `ClC=C(Cl)Cl` [trichloroethene] + CCCCO here?
Answer: 2.098 ± 0.019 mPa·s

Question: What about the viscosity (x1 = 0.2033) of the same molecule?
Answer: 1.734 ± 0.015 mPa·s

Question: What about the viscosity (x1 = 0.3038) of the same molecule?
Answer: 1.429 ± 0.013 mPa·s

Question: And the viscosity (x1 = 0.4042)?
Answer: 1.19 ± 0.011 mPa·s

Question: And the viscosity (x1 = 0.5046)?
Answer: 1.008 ± 0.01 mPa·s

Question: What about the viscosity (x1 = 0.6045) of the same molecule?
Answer: 0.8696 ± 0.0093 mPa·s

Question: And the viscosity (x1 = 0.7042)?
Answer: 0.7737 ± 0.0087 mPa·s

Question: And the viscosity (x1 = 0.8025)?
Answer: 0.6878 ± 0.0082 mPa·s

Question: And the viscosity (x1 = 0.9014)?
Answer: 0.6227 ± 0.0079 mPa·s

Question: What about the viscosity (x1 = 1) of the same molecule?
Answer: 0.551 ± 0.0075 mPa·s

Question: And the mass density (x1 = 0.1018)?
Answer: 870 ± 0.6 kg/m3

Question: What about the mass density (x1 = 0.2033) of the same molecule?
Answer: 934.3 ± 0.6 kg/m3

Question: And the mass density (x1 = 0.3038)?
Answer: 997.5 ± 0.6 kg/m3

Question: What about the mass density (x1 = 0.4042) of the same molecule?
Answer: 1061.9 ± 0.7 kg/m3

Question: What about the mass density (x1 = 0.5046) of the same molecule?
Answer: 1126.5 ± 0.8 kg/m3

Question: What about the mass density (x1 = 0.6045) of the same molecule?
Answer: 1191.4 ± 0.9 kg/m3

Question: What about the mass density (x1 = 0.7042) of the same molecule?
Answer: 1257 ± 1 kg/m3

Question: And the mass density (x1 = 0.8025)?
Answer: 1321.9 ± 1.1 kg/m3

Question: And the mass density (x1 = 0.9014)?
Answer: 1388.3 ± 1.2 kg/m3

Question: What about the mass density (x1 = 1) of the same molecule?
Answer: 1455.7 ± 1.3 kg/m3

Question: With `ClC=C(Cl)Cl` [trichloroethene] + CCCO as the molecule, how does the viscosity (x1 = 0.0848) read?
Answer: 1.705 ± 0.015 mPa·s

Question: And the viscosity (x1 = 0.1725)?
Answer: 1.486 ± 0.013 mPa·s

Question: And the viscosity (x1 = 0.2627)?
Answer: 1.281 ± 0.012 mPa·s

Question: What about the viscosity (x1 = 0.3567) of the same molecule?
Answer: 1.099 ± 0.011 mPa·s

Question: And the viscosity (x1 = 0.4541)?
Answer: 0.9476 ± 0.0097 mPa·s

Question: What about the viscosity (x1 = 0.5556) of the same molecule?
Answer: 0.8226 ± 0.009 mPa·s

Question: What about the viscosity (x1 = 0.6604) of the same molecule?
Answer: 0.7262 ± 0.0084 mPa·s

Question: What about the viscosity (x1 = 0.7691) of the same molecule?
Answer: 0.6463 ± 0.008 mPa·s

Question: What about the viscosity (x1 = 0.8823) of the same molecule?
Answer: 0.5848 ± 0.0077 mPa·s

Question: And the viscosity (x1 = 1)?
Answer: 0.551 ± 0.0075 mPa·s

Question: And the mass density (x1 = 0.0848)?
Answer: 864.2 ± 0.6 kg/m3

Question: And the mass density (x1 = 0.1725)?
Answer: 928.6 ± 0.6 kg/m3

Question: And the mass density (x1 = 0.2627)?
Answer: 992.9 ± 0.6 kg/m3

Question: And the mass density (x1 = 0.3567)?
Answer: 1058.3 ± 0.7 kg/m3

Question: And the mass density (x1 = 0.4541)?
Answer: 1122.4 ± 0.8 kg/m3

Question: What about the mass density (x1 = 0.5556) of the same molecule?
Answer: 1188.3 ± 0.9 kg/m3

Question: And the mass density (x1 = 0.6604)?
Answer: 1254.3 ± 1 kg/m3

Question: What about the mass density (x1 = 0.7691) of the same molecule?
Answer: 1320.6 ± 1.1 kg/m3

Question: What about the mass density (x1 = 0.8823) of the same molecule?
Answer: 1387.5 ± 1.2 kg/m3

Question: And the mass density (x1 = 1)?
Answer: 1455.7 ± 1.3 kg/m3

Question: With `ClC=C(Cl)Cl` [trichloroethene] + CCO as the molecule, how does the viscosity (x1 = 0.0673) read?
Answer: 1.047 ± 0.01 mPa·s

Question: And the viscosity (x1 = 0.1397)?
Answer: 0.9855 ± 0.01 mPa·s

Question: And the viscosity (x1 = 0.2173)?
Answer: 0.9272 ± 0.0096 mPa·s

Question: What about the viscosity (x1 = 0.3018) of the same molecule?
Answer: 0.8651 ± 0.0092 mPa·s

Question: What about the viscosity (x1 = 0.3932) of the same molecule?
Answer: 0.8082 ± 0.0089 mPa·s

Question: And the viscosity (x1 = 0.493)?
Answer: 0.7528 ± 0.0086 mPa·s

Question: And the viscosity (x1 = 0.602)?
Answer: 0.6984 ± 0.0083 mPa·s

Question: What about the viscosity (x1 = 0.7215) of the same molecule?
Answer: 0.647 ± 0.008 mPa·s

Question: What about the viscosity (x1 = 0.8563) of the same molecule?
Answer: 0.5974 ± 0.0078 mPa·s

Question: And the viscosity (x1 = 1)?
Answer: 0.551 ± 0.0075 mPa·s

Question: What about the mass density (x1 = 0.0673) of the same molecule?
Answer: 852.4 ± 0.6 kg/m3

Question: And the mass density (x1 = 0.1397)?
Answer: 918.2 ± 0.6 kg/m3

Question: What about the mass density (x1 = 0.2173) of the same molecule?
Answer: 983.9 ± 0.6 kg/m3

Question: And the mass density (x1 = 0.3018)?
Answer: 1049.4 ± 0.6 kg/m3

Question: What about the mass density (x1 = 0.3932) of the same molecule?
Answer: 1115.8 ± 0.7 kg/m3

Question: And the mass density (x1 = 0.493)?
Answer: 1182.4 ± 0.9 kg/m3

Question: What about the mass density (x1 = 0.602) of the same molecule?
Answer: 1249.4 ± 0.9 kg/m3

Question: And the mass density (x1 = 0.7215)?
Answer: 1317.1 ± 1.1 kg/m3

Question: And the mass density (x1 = 0.8563)?
Answer: 1385.6 ± 1.2 kg/m3

Question: What about the mass density (x1 = 1) of the same molecule?
Answer: 1455.7 ± 1.3 kg/m3

Question: What does the source list for `ClC=C(Cl)Cl` [trichloroethene] + CCOC(C)=O?
Answer: viscosity (x1 = 0.1086): 0.4658 ± 0.0072 mPa·s; viscosity (x1 = 0.2151): 0.5023 ± 0.0073 mPa·s; viscosity (x1 = 0.3189): 0.5302 ± 0.0074 mPa·s; viscosity (x1 = 0.4219): 0.5564 ± 0.0076 mPa·s; viscosity (x1 = 0.5226): 0.5685 ± 0.0076 mPa·s; viscosity (x1 = 0.6215): 0.5705 ± 0.0076 mPa·s; viscosity (x1 = 0.7185): 0.5681 ± 0.0076 mPa·s; viscosity (x1 = 0.8143): 0.563 ± 0.0076 mPa·s; viscosity (x1 = 0.908): 0.5589 ± 0.0076 mPa·s; viscosity (x1 = 1): 0.551 ± 0.0075 mPa·s; mass density (x1 = 0.1086): 944.2 ± 0.6 kg/m3; mass density (x1 = 0.2151): 998.6 ± 0.5 kg/m3; mass density (x1 = 0.3189): 1052.8 ± 0.6 kg/m3; mass density (x1 = 0.4219): 1108.6 ± 0.7 kg/m3; mass density (x1 = 0.5226): 1163.7 ± 0.8 kg/m3; mass density (x1 = 0.6215): 1220.2 ± 0.9 kg/m3; mass density (x1 = 0.7185): 1277.3 ± 1 kg/m3; mass density (x1 = 0.8143): 1335.6 ± 1.1 kg/m3; mass density (x1 = 0.908): 1393.5 ± 1.2 kg/m3; mass density (x1 = 1): 1455.7 ± 1.3 kg/m3

From the NIST ThermoML archive (doi:10.1021/je034203p)
